Source: US6448204B1, “Herbicidal 2-aryloxy-4-methyl-6-pyrazol-1-yl-pyridines” (BASF Aktiengesellschaft, priority 1999, dated 2002)

Columns and labels:
Assay type in all cases: in vivo
[1] = test system: Stellaria media (STEME); assay: Pre-emergence test; details: 0.400 kg/ha, 3 weeks after treatment
Protocol: (§1) To evaluate their herbicidal activity, compounds according to the invention are tested using a representative range of plants: […] The pre-emergence tests involve spraying a liquid formulation of the compound onto the soil in which the seeds of the plant species mentioned above has recently been sown. The soil used in the tests is a prepared horticultural loam. […] In these tests untreated sown soil are used as controls.

[2] = test system: Zea mays (ZEAMX); assay: Pre-emergence test; details: for Assessment rating ZEAMX (pre-emergence application): crop (corn), 3 weeks after treatment
Protocol: as §1

[3] = test system: Abutilon theophrasti (ABUTH); assay: Post-emergence test; details: 2-4 weeks after treatment
Protocol: (§2) To evaluate their herbicidal activity, compounds according to the invention are tested using a representative range of plants:
(§3) These acetone solutions are diluted with water and the resulting formulations applied at dosage levels equivalent of about 0.025 to 0.4 kg per hectare of test compound per pot. After spraying the plants are placed on greenhouse benches and are cared for in the usual manner, commensurate with conventional greenhouse practices. From 2 to 4 weeks after treatment, the seedling plants are examined and rated according to the rating system provided above.

[4] = test system: Alopecurus myosuroides (ALOMY); assay: Post-emergence test; details: 2-4 weeks after treatment
Protocol: as §2, §3

[5] = test system: Ambrosia artemisifolia (AMBEL); assay: Post-emergence test; details: 2-4 weeks after treatment
Protocol: as §2, §3

[6] = test system: Cassia obtusifolia (CASOB); assay: Post-emergence test; details: 2-4 weeks after treatment
Protocol: as §2, §3

[7] = test system: Digitaria sanguinalis (DIGSA); assay: Post-emergence test; details: 2-4 weeks after treatment
Protocol: as §2, §3

[8] = test system: Echinochloa crus-galli (ECHCG); assay: Post-emergence test; details: 2-4 weeks after treatment
Protocol: as §2, §3

[9] = test system: Galium aparine (GALAP); assay: Post-emergence test; details: 2-4 weeks after treatment
Protocol: as §2, §3

[10] = test system: Ipomoea hederacea (IPOHE); assay: Post-emergence test; details: 2-4 weeks after treatment
Protocol: as §2, §3

[11] = test system: Lamium purpureum (LAMPU); assay: Post-emergence test; details: 2-4 weeks after treatment
Protocol: as §2, §3

[12] = test system: Lolium multiflorum (LOLMU); assay: Post-emergence test; details: 2-4 weeks after treatment
Protocol: as §2, §3

[13] = test system: Matricaria inodora (MATIN); assay: Post-emergence test; details: 2-4 weeks after treatment
Protocol: as §2, §3

[14] = test system: Setaria viridis (SETVI); assay: Post-emergence test; details: 2-4 weeks after treatment
Protocol: as §2, §3

[15] = test system: Stellaria media (STEME); assay: Post-emergence test; details: 2-4 weeks after treatment
Protocol: as §2, §3

[16] = test system: thirteen weed species (broadleaf weeds and grasses); assay: Pre-emergence test, summary over all weeds; details: for Number of weed species well / sufficiently controlled: out of thirteen species
Protocol: as §1

[17] = test system: weed species; assay: Post-emergence test, summary over all weeds
Protocol: as §2, §3

Compound: Cc1cc(Oc2cc(C(F)(F)F)nn2C)nc(-n2ccc(C(F)(F)F)n2)c1 [Example 2, 4-methyl-2-(-3-trifluoromethyl-1H-prazol-1-yl)-6-(1-methyl-3-trifluoromethyl-pyrazol-5-yloxy)-pyridine]
- Assessment rating STEME (pre-emergence application) [1]: 9 (9 - Complete kill)
- Assessment rating ZEAMX (pre-emergence application) ([2]; 0.013 kg/ha): 0 (0 - No effect)
- Assessment rating ZEAMX (pre-emergence application) ([2]; 0.025 kg/ha): 1 (1 - Trace effect)
- Assessment rating ZEAMX (pre-emergence application) ([2]; 0.100 kg/ha): 2 (2 - Slight effect)
- Assessment rating ZEAMX (pre-emergence application) ([2]; 0.400 kg/ha): 4 (4 - Injury)
- Selectivity in maize ([2]; pre-emergence, 0.100 kg/ha): Good selectivity in maize
- Rating ABUTH (post-emergence application) ([3]; 0.025 kg/ha): 6 (6 - Herbicidal effect)
- Rating ABUTH (post-emergence application) ([3]; 0.100 kg/ha): 8 (8 - Approaching complete kill)
- Rating ABUTH (post-emergence application) ([3]; 0.400 kg/ha): 9 (9 - Complete kill)
- Rating ALOMY (post-emergence application) ([4]; 0.025 kg/ha): 4 (4 - Injury)
- Rating ALOMY (post-emergence application) ([4]; 0.100 kg/ha): 8 (8 - Approaching complete kill)
- Rating ALOMY (post-emergence application) ([4]; 0.400 kg/ha): 8 (8 - Approaching complete kill)
- Rating AMBEL (post-emergence application) ([5]; 0.025 kg/ha): 6 (6 - Herbicidal effect)
- Rating AMBEL (post-emergence application) ([5]; 0.100 kg/ha): 8 (8 - Approaching complete kill)
- Rating AMBEL (post-emergence application) ([5]; 0.400 kg/ha): 8 (8 - Approaching complete kill)
- Rating CASOB (post-emergence application) ([6]; 0.025 kg/ha): 9 (9 - Complete kill)
- Rating CASOB (post-emergence application) ([6]; 0.100 kg/ha): 9 (9 - Complete kill)
- Rating CASOB (post-emergence application) ([6]; 0.400 kg/ha): 9 (9 - Complete kill)
- Rating DIGSA (post-emergence application) ([7]; 0.025 kg/ha): 6 (6 - Herbicidal effect)
- Rating DIGSA (post-emergence application) ([7]; 0.100 kg/ha): 8 (8 - Approaching complete kill)
- Rating DIGSA (post-emergence application) ([7]; 0.400 kg/ha): 9 (9 - Complete kill)
- Rating ECHCG (post-emergence application) ([8]; 0.025 kg/ha): 6 (6 - Herbicidal effect)
- Rating ECHCG (post-emergence application) ([8]; 0.100 kg/ha): 9 (9 - Complete kill)
- Rating ECHCG (post-emergence application) ([8]; 0.400 kg/ha): 9 (9 - Complete kill)
- Rating GALAP (post-emergence application) ([9]; 0.025 kg/ha): 5 (5 - Definite injury)
- Rating GALAP (post-emergence application) ([9]; 0.100 kg/ha): 6 (6 - Herbicidal effect)
- Rating GALAP (post-emergence application) ([9]; 0.400 kg/ha): 8 (8 - Approaching complete kill)
- Rating IPOHE (post-emergence application) ([10]; 0.025 kg/ha): 9 (9 - Complete kill)
- Rating IPOHE (post-emergence application) ([10]; 0.100 kg/ha): 9 (9 - Complete kill)
- Rating IPOHE (post-emergence application) ([10]; 0.400 kg/ha): 9 (9 - Complete kill)
- Rating LAMPU (post-emergence application) ([11]; 0.025 kg/ha): 8 (8 - Approaching complete kill)
- Rating LAMPU (post-emergence application) ([11]; 0.100 kg/ha): 9 (9 - Complete kill)
- Rating LAMPU (post-emergence application) ([11]; 0.400 kg/ha): 9 (9 - Complete kill)
- Rating LOLMU (post-emergence application) ([12]; 0.025 kg/ha): 6 (6 - Herbicidal effect)
- Rating LOLMU (post-emergence application) ([12]; 0.100 kg/ha): 9 (9 - Complete kill)
- Rating LOLMU (post-emergence application) ([12]; 0.400 kg/ha): 9 (9 - Complete kill)
- Rating MATIN (post-emergence application) ([13]; 0.025 kg/ha): 6 (6 - Herbicidal effect)
- Rating MATIN (post-emergence application) ([13]; 0.100 kg/ha): 8 (8 - Approaching complete kill)
- Rating MATIN (post-emergence application) ([13]; 0.400 kg/ha): 8 (8 - Approaching complete kill)
- Rating SETVI (post-emergence application) ([14]; 0.025 kg/ha): 6 (6 - Herbicidal effect)
- Rating SETVI (post-emergence application) ([14]; 0.100 kg/ha): 8 (8 - Approaching complete kill)
- Rating SETVI (post-emergence application) ([14]; 0.400 kg/ha): 9 (9 - Complete kill)
- Rating STEME (post-emergence application) ([15]; 0.025 kg/ha): 8 (8 - Approaching complete kill)
- Rating STEME (post-emergence application) ([15]; 0.100 kg/ha): 9 (9 - Complete kill)
- Rating STEME (post-emergence application) ([15]; 0.400 kg/ha): 9 (9 - Complete kill)
- Herbicidal activity, overall judgement [16]: excellent activity on both broadleaf weeds and grasses
- Rate required to obtain the same level of weed control [16]: 0.100 kg/ha
- Number of weed species well / sufficiently controlled ([16]; 0.100 kg/ha): eleven out of thirteen species
- Number of weed species well / sufficiently controlled ([16]; 0.400 kg/ha): all of the thirteen weed species
- Number of weed species controlled ([17]; 0.100 kg/ha): twelve weed species
- Herbicidal activity, overall judgement ([17]; versus known compound of the prior art): clearly superior activity
